Results as given in PubChem BioAssay (NCI).
“And” between values parts separate entries of the source, which are not always exact repeats. Identical values can stand only once.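 Where inhibition never reached the appropriate level, the endpoint shown equals the highest concentration tested. Otherwise, values were interpolated linearly from a five-concentration, 48-hour dose response in 96-well plates. GI50: concentration for 50% inhibition of growth. The concentration for full growth arrest is given as TGI.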

Columns and labels:
Assay in all cases: NCI tumour cell line growth inhibition, 48 h
[1] = system: KM12 colon
[2] = system: MCF7 breast
[3] = system: MDA-MB-435
[4] = system: NCI-H23 lung
[5] = system: NCI-H460 lung
[6] = system: OVCAR-3 ovarian
[7] = system: OVCAR-8 ovarian
[8] = system: PC-3 prostate
[9] = system: RXF 393 renal
[10] = system: SK-MEL-2 melanoma

Compound | GI50 [1] | TGI [1] [µM] | GI50 [2] | TGI [2] [µM] | GI50 [3] [µM] | TGI [3] [µM] | GI50 [4] | TGI [4] [µM] | GI50 [5] | TGI [5] [µM] | GI50 [6] | TGI [6] | GI50 [7] | TGI [7] [µM] | GI50 [8] | TGI [8] [µM] | GI50 [9] [µM] | TGI [9] [µM] | GI50 [10] [µM] | TGI [10] [µM]
CNC(=O)c1c(C)oc2cc(Oc3ncnc4cc(OC)c(OC)cc34)ccc12 | > 100 µM | > 100 | > 100 µM | > 100 | > 100 | > 100 | > 100 µM | > 100 | > 100 µM | > 100 | > 100 µM | > 100 µM | > 100 µM | > 100 | > 100 µM | > 100 | 0.235 | 2.63 | > 100 | > 100
COc1c/c(=C2\C=c3ccccc3=N2)[nH]/c1=C\c1[nH]c(C)cc1C | 0.0216 µM | 10.6 | 0.0464 µM | > 100 | 0.0136 | 0.0951 | 0.0986 µM | 7.08 | 0.0268 µM | > 100 | < 0.0109 µM | 0.202 µM | 0.214 µM | > 21.8 | 0.12 µM | 31.3 | 0.538 | > 100 | 0.0753 | 2.27
CC[C@H](C)[C@H](NC(=O)[C@H]1CCCCN1C)C(=O)N(C)[C@H](C[C@@H](OC(C)=O)c1cccc(C(=O)N[C@@H](Cc2ccccc2)C[C@H](C)C(=O)OC)n1)C(C)C | 0.00188 µM and 0.0025 µM | > 25 | 0.000334 µM and 0.0025 µM | > 25 | 0.00028 | 0.00143 | 0.00443 µM and 0.00521 µM | > 25 | 0.0038 µM and 0.0025 µM | > 25 | 0.000398 µM and < 0.0025 µM | 0.00308 µM and < 0.0025 µM | 0.00797 µM and 0.0056 µM | > 25 | 0.0032 µM and 0.0025 µM | > 25 | 0.00316 |  | 0.0025 | 10.3
COc1ccc(/C=C\c2cc(OC)c(OC)c(OC)c2)cc1OCC(=O)Nc1nc2ccc(F)cc2s1 | 4.78 µM | > 100 | 2.3 µM | > 100 | 0.335 | > 100 | 4.26 µM | > 100 | 4.31 µM | > 100 | 9.99 µM | > 100 µM | 7.15 µM | > 100 | 6.74 µM | > 100 | 6.29 | > 100 | 8.46 | > 100
COC(COC(N)=O)C1=C(N2CC2)C(=O)C(C)=C(N2CC2)C1=O (centres undefined) |  | 0.365 |  | 1 |  | 1.42 |  | 0.0907 |  | 0.115 |  | 0.379 µM |  | 0.24 |  | 1.51 |  | 0.256 |  | 0.492
Clc1c(Cl)[n+](Cc2ccc3ccccc3c2)cn1Cc1ccc2ccccc2c1 | 1.53 µM | 3.05 | 1.32 µM | 2.88 | 1.24 | 2.64 | 1.35 µM | 3.15 | 1.53 µM | 2.98 | 1.34 µM | 2.69 µM | 1.65 µM | 3.3 | 1.46 µM | 2.87 | 1.63 | 3.1 | 1.67 | 3.24
CCc1cccc(C(C)C)c1NC(=O)C(=O)C1C(=O)Nc2ccccc2S1=O (centres undefined) |  | > 100 |  | > 100 |  | > 100 |  | > 100 |  | > 100 |  | > 100 µM |  | > 100 |  | > 100 |  | > 100 |  | > 100
O=C1Nc2c(ccc(Cl)c2Cl)/C1=C/c1cc(Br)c(O)c(Br)c1 | 4.75 µM | 40.2 | 3.4 µM | > 71.9 | 2.02 | 5.82 | 4.91 µM | > 65.7 | 3.13 µM | 16.9 | 3.14 µM | 12 µM | 10 µM | > 100 | 5.23 µM | > 100 | 7.32 | 35.2 | 5.15 | 20.9
O=C(O)c1cc(-c2ccc3cc4c(cc3c2)OCO4)nc2ccccc12 |  | > 100 |  | > 100 |  | > 100 |  | > 100 |  | 42.7 |  | > 100 µM |  | > 100 |  | > 100 |  | > 100 |  | > 100
COc1ccc2c(c1)C(=O)c1c-2n(CCCN(C)C)c(=O)c2ccccc12 | 0.412 µM | 5.25 | 0.0295 µM | 2.31 | 0.557 | 3.27 | 0.318 µM | 1.31 | 0.0517 µM | 0.454 | 0.551 µM | 7.85 µM | 0.186 µM | 11.3 | 0.436 µM | 8.07 | 0.53 | 2.34 | 1.86 | 7.18
COc1ccc2ncn(-c3cc(O[C@H](C)c4ccccc4C(F)(F)F)c(C(N)=O)s3)c2c1 | 0.0794 µM | 3.04 | 0.0637 µM | 13 | 0.0466 | 0.155 | 0.113 µM | 5.9 | 0.088 µM | 2.99 | 0.0858 µM | 0.863 µM | 0.117 µM | 8.81 | 0.137 µM | 15.3 | 0.0902 | 3.72 | 0.12 | 4.82
O=C(NCCCCN1CCOCC1)c1cc2ccccc2o1 | > 100 µM | > 100 | > 100 µM | > 100 | > 100 | > 100 | > 100 µM | > 100 | > 100 µM | > 100 | > 100 µM | > 100 µM | > 100 µM | > 100 | > 100 µM | > 100 | > 100 | > 100 | > 100 | > 100
CC(C)(C)C(=O)OCOP(=O)(NCc1ccccc1)C1CCCN(O)C1=O (centres undefined) | 1.13 µM | 3.56 | 2.41 µM | 11.1 | 4.09 | 71.9 | 2.77 µM | 13.4 | 1.75 µM | 15.5 | 1.04 µM | 9 µM | 1.17 µM | > 100 | 5.08 µM | > 100 | 1.76 | 6.48 | 2.85 | 15.6
